From patent publication US20250368626A1, “SOLID FORMS OF 2-(3,5-DICHLORO-4-((5-ISOPROPYL-6-OXO-1,6-DIHYDROPYRIDAZIN-3-YL)OXY)PHENYL)-3,5-DIOXO-2,3,4,5-TETRAHYDRO-1,2,4-TRIAZINE-6-CARBONITRILE” (Madrigal Pharmaceuticals, Inc., priority 2018, published 2025) come the findings set out here.

The nature of series [1]: Kinetic and thermodynamic solubility of Compound A and the glutaric acid co-crystal in FaSSGF, FaSSIF and water at 37° C. (HPLC). The format is physicochemical. As to conditions: for solubility at 1 h / solubility at 24 h / Solubility: 37° C.; for pH: pH of the slurry; for XRPD after slurry: solid form after slurry. Here is the method:
The kinetic and thermodynamic solubility of the glutaric acid co-crystal was assessed in simulated fasted state gastric and intestinal fluids (FaSSGF and FaSSIF) and also in water. The pH of the system was also measured. The solubility assessment was also performed on Compound A for comparison. […] Samples were collected after 24 hours for equilibrium solubility measurement.

Series [2] in a line: Solubility of salts of Compound A in FaSSGF, FaSSIF and water at 37° C. As to conditions: for Solubility: 37° C.
Series [3] is described as follows: Dynamic vapor sorption (DVS) of the glutaric acid co-crystal. The format is physicochemical. The source says: FIG. 83 is a dynamic vapor sorption (DVS) isotherm of the glutaric acid co-crystal of Compound A showing a total mass gain of 1.12% by weight between 2% and 95% relative humidity environments.
No difference in the XRPD pattern was seen after the DVS analysis, the XRPD patterns before and after DVS analysis are shown in FIG. 84.

Series [4] in a line: Stability of the co-crystal at 75% RH at 40° C. for 1 week. The series is classed as physicochemical.
Series [5] is described as follows: Physical form stability of scaled-up salts at 75% relative humidity for 1 week. The series is classed as physicochemical.
[6] abbreviates: solid after solubility test in FaSSGF, by XRPD.
Setting [7] is: Water, value of the 100X dil sample.

Each structure is given as a SMILES string. In brackets after ≈: the same amount, converted by molar mass.

In the case of `CC(C)c1cc(Oc2c(Cl)cc(-n3nc(C#N)c(=O)[nH]c3=O)cc2Cl)n[nH]c1=O` [Form A, 2-(3,5-dichloro-4-((5-isopropyl-6-oxo-1,6-dihydropyridazin-3-yl)oxy)phenyl)-3,5-dioxo-2,3,4,5-tetrahydro-1,2,4-triazine-6-carbonitrile], the solubility at 1 h in series [1] (fassgf or other biorelevant, thermodynamic from solid, FaSSGF, Kinetic-1 hour) was 1.1 µg/mL (≈ 2.53 µM); in series [1] (thermodynamic from solid, FaSSIF, Kinetic-1 hour) it was 490 µg/mL (≈ 1120 µM); in series [1] (thermodynamic from solid, Water, Kinetic-1 hour), 25.9 µg/mL (≈ 59.5 µM). The solubility at 24 h came to 1.1 µg/mL (≈ 2.53 µM) in series [1] (pH 1.67, fassgf or other biorelevant, thermodynamic from solid, FaSSGF, Equilibrium-24 hours); 552 µg/mL (≈ 1270 µM) in series [1] (pH 6.44, thermodynamic from solid, FaSSIF, Equilibrium-24 hours); 193 µg/mL (≈ 443 µM) in series [1] (pH 6.57, thermodynamic from solid, Water, Equilibrium-24 hours). Besides, the pH in series [1] (FaSSGF, Equilibrium-24 hours) is reported as 1.67; in series [1] (FaSSIF, Equilibrium-24 hours), 6.44; in series [1] (Water, Equilibrium-24 hours) it was 6.57. The XRPD after slurry entry in series [1] (FaSSGF, Equilibrium-24 hours) is “Form-A”; in series [1] (FaSSIF, Equilibrium-24 hours) it was “Form-A”; in series [1] (Water, Equilibrium-24 hours), “Dihydrate”.

Turning to `CC(C)c1cc(Oc2c(Cl)cc(-n3nc(C#N)c(=O)[nH]c3=O)cc2Cl)n[nH]c1=O` [Free form Anhydrous], the “Solubility” value in series [2] (FaSSGF) turned out to be 0.1 mg/mL; in series [2] (FaSSIF) it was 4.5 mg/mL; in series [2] (Water), 0.2 mg/mL.

Consider `CC(C)c1cc(Oc2c(Cl)cc(-n3nc(C#N)c(=O)[nH]c3=O)cc2Cl)n[nH]c1=O.O.O` [Free form dihydrate], for which the figures for the “Solubility” value in series [2] (FaSSGF), in series [2] (FaSSIF) and in series [2] (Water) were 0.0067 mg/mL, 2.9 mg/mL and 0.1 mg/mL, respectively.

With `CC(C)c1cc(Oc2c(Cl)cc(-n3nc(C#N)c(=O)[nH]c3=O)cc2Cl)n[nH]c1=O.O=C(O)CCCC(=O)O` [Glutaric acid co-crystal], in series [3] (DVS, 2% to 95% RH), the hygroscopicity entry is recorded as “not hygroscopic”. Further, the “mass gain (DVS)” value in series [3] (between 2% and 95% relative humidity, by weight) was 1.12%. Further, the “XRPD pattern after DVS analysis compared with the starting material” value was “No difference” in series [3] (listed as co-crystal) and “no change was observed” in series [3] (listed as glutaric acid co-crystal). For the same molecule, the “Solubility” value worked out at 1 µg/mL in series [1] (FaSSGF, Equilibrium-24 hours); 0.1 µg/mL in series [1] (FaSSGF, Kinetic-1 hour); 478.1 µg/mL in series [1] (FaSSIF, Equilibrium-24 hours); 239.9 µg/mL in series [1] (FaSSIF, Kinetic-1 hour); 1.6 µg/mL in series [1] (Water, Equilibrium-24 hours); 0.3 µg/mL in series [1] (Water, Kinetic-1 hour). The pH in series [1] (FaSSGF, Equilibrium-24 hours) stood at 1.66; in series [1] (FaSSIF, Equilibrium-24 hours), 6.31; in series [1] (Water, Equilibrium-24 hours) it was 4.27. Besides, the XRPD after slurry entry is “Dihydrate” in series [1] (FaSSGF, Equilibrium-24 hours); “Dihydrate” in series [1] (FaSSIF, Equilibrium-24 hours); “Dihydrate” in series [1] (Water, Equilibrium-24 hours). In series [4], the stability entry is listed as “stable”.

Consider `CC(C)c1cc(Oc2c(Cl)cc(-n3nc(C#N)c(=O)[n-]c3=O)cc2Cl)n[nH]c1=O.CC(C)c1cc(Oc2c(Cl)cc(-n3nc(C#N)c(=O)[n-]c3=O)cc2Cl)n[nH]c1=O.[Ca+2]` [Hemi Ca], for which the entries for the “Solubility” value in series [2] (FaSSGF), in series [2] (FaSSIF) and in series [2] (Water) were 0.0025 mg/mL, 0.80 mg/mL and 0.32 mg/mL, respectively. Moreover, the Resulting form entry in series [2] (after solubility test in Water) and in series [2] (setting [6]) was “Dihydrate” each time. In addition, the “physical form stability compared with starting solids” value in series [5] is recorded as “changes were observed”.

For the molecule `CC(C)c1cc(Oc2c(Cl)cc(-n3nc(C#N)c(=O)[n-]c3=O)cc2Cl)n[nH]c1=O.[K+]` [K], the “Solubility” value in series [2] (FaSSGF) is 0.0012 mg/mL; in series [2] (FaSSIF), 2.72 mg/mL; in series [2] (Water), > 21.3 mg/mL; in series [2] (setting [7]), 0.21 mg/mL. Also, the Resulting form result in series [2] (after solubility test in Water) is given as “Clear solution”; in series [2] (setting [6]) it was “Dihydrate”.

As to `CC(C)c1cc(Oc2c(Cl)cc(-n3nc(C#N)c(=O)[n-]c3=O)cc2Cl)n[nH]c1=O.[Na+]` [Na], the “Solubility” value is 0.0008 mg/mL in series [2] (FaSSGF), 2.50 mg/mL in series [2] (FaSSIF), > 25 mg/mL in series [2] (Water) and 0.25 mg/mL in series [2] (setting [7]). In addition, the Resulting form result in series [2] (after solubility test in Water) is listed as “Clear solution”; in series [2] (setting [6]), “Dihydrate”.
